Here are results for 13 molecules from patent publication US12441691B2 (Cytokinetics, Inc., priority 2020, dated 2025).

The assay concerns rabbit skeletal myofibrils (fast skeletal myofibrils). The assay can be described thus: Activation of fast skeletal myofibrils (PUMA assay, AC1.4). The assay is classed as biochemical. As to conditions: calcium at pCa25, AC1.4 = concentration at which the compound increased the enzymatic activity. Here is the method:
Preparation of fast skeletal myofibrils: Rabbit skeletal myofibrils were prepared based upon the method of Herrmann et al. (Biochem. 32(28):7255-7263(1993). Myofibrils were prepared from rabbit psoas muscle purchased from Pel-Freez Biologicals (Arkansas) within 2 days of ordering, stored on ice. Minced muscle was homogenized in 10 volumes of ice-cold “standard” buffer (50 mM Tris, pH 7.4, 0.1 M KOAc, 5 mM KCl, 2 mM dithiothreitol (DTT), 0.2 mM phenylmethylsulfonyl fluoride (PMSF), 10 μM leupeptin, 5 μM pepstatin, and 0.5 mM sodium azide) containing 5 mM ethylenediaminetetraacetic acid (EDTA) and 0.5% Triton X-100 using an Omni-Macro homogenizer. Myofibrils were recovered by low speed centrifugation (3000 rpm for 10 minutes) and washed 2 times in the Triton X-100 containing buffer to ensure removal of cellular membrane. Following the Triton washes, myofibrils were washed 3 times in “standard” buffer containing 2 mM magnesium acetate. A final wash in assay buffer (12 mM piperazine-1,4-bis(2-ethanesulfonic acid) (PIPES), pH 6.8, 60 mM KCl, 1 mM DTT) was performed and brought to 10% sucrose for flash freezing in liquid nitrogen and storage at −80° C.
Activation of Fast Skeletal Myofibrils: Fast fiber activators were identified by measuring the enzymatic activity of muscle myofibril preparations using the proprietary PUMA (trademark) (see, e.g., U.S. Pat. Nos. 6,410,254, 6,743,599, 7,202,051, and 7,378,254) assay system. Myofibril preparations consisted of rabbit skeletal muscle (approximately 90% fast fibers) that had been mechanically homogenized and washed with a detergent (Triton X-100) to remove cellular membranes. This preparation retained all of the sarcomeric components in a native conformation and the enzymatic activity was still regulated by calcium. Compounds were tested using a myofibril suspension and a level of calcium sufficient to increase enzymatic activity of the myofibrils to 25% of their maximal rate (termed pCa25). Enzymatic activity was tracked via a pyruvate kinase and lactate dehydrogenase-coupled enzyme system. This assay regenerates myosin-produced ADP into ATP by oxidizing NADH, producing an absorbance change at 340 nm. The buffering system was 12 mM PIPES, 2 mM MgCl2, 1 mM DTT at pH 6.8 (PM12 buffer). […] In Table 9, “Example Compound” refers to the compound labeled with the same number in Table 2.

Turning to `CC[C@H](C)[C@H]1C(=O)Nc2ccc(Cl)cc2CN1C(N)=O` [Compound 73, (S)-3-((S)-sec-butyl)-7-chloro-2-oxo-1,2,3,5-tetrahydro-4H-benzo[e][1,4]diazepine-4-carboxamide], the AC1.4 worked out at 0.93 µM.
For `CC[C@H](C)[C@H]1C(=O)Nc2ccc(C3CC3)cc2CN1C(N)=O` [Compound 74, (S)-3-((S)-sec-butyl)-7-cyclopropyl-2-oxo-1,2,3,5-tetrahydro-4H-benzo[e][1,4]diazepine-4-carboxamide] the value was 2.39 µM.
For `CC[C@H](C)[C@H]1C(=O)Nc2cc(F)ccc2CN1C(N)=O` [Compound 75, (S)-3-((S)-sec-butyl)-8-fluoro-2-oxo-1,2,3,5-tetrahydro-4H-benzo[e][1,4]diazepine-4-carboxamide] the value was 0.13 µM; for `CC[C@H](C)[C@H]1C(=O)Nc2cc(F)ccc2CN1C(=O)N1CC(O)C1` [Compound 76, (S)-3-((S)-sec-butyl)-8-fluoro-4-(3-hydroxyazetidine-1-carbonyl)-1,3,4,5-tetrahydro-2H-benzo[e][1,4]diazepin-2-one], 0.14 µM.
The value for `CC[C@H](C)[C@H]1C(=O)Nc2cc(F)ccc2CN1C(=O)NC` [Compound 77, (S)-3-((S)-sec-butyl)-8-fluoro-N-methyl-2-oxo-1,2,3,5-tetrahydro-4H-benzo[e][1,4]diazepine-4-carboxamide] was 0.19 µM.
On to `CC[C@H](C)[C@H]1C(=O)Nc2c(F)cccc2CN1C(=O)NC` [Compound 78, (S)-3-((S)-sec-butyl)-9-fluoro-N-methyl-2-oxo-1,2,3,5-tetrahydro-4H-benzo[e][1,4]diazepine-4-carboxamide], for which the AC1.4 turned out to be 0.50 µM.
For `CC[C@H](C)[C@H]1C(=O)Nc2c(F)cccc2CN1C(=O)N1CC(O)C1` [Compound 79, (S)-3-((S)-sec-butyl)-9-fluoro-4-(3-hydroxyazetidine-1-carbonyl)-1,3,4,5-tetrahydro-2H-benzo[e][1,4]diazepin-2-one] the value was 0.32 µM.
For `CC[C@H](C)[C@H]1C(=O)Nc2cncc(F)c2CN1C(=O)c1cnn(C)c1` [Compound 80, (S)-3-((S)-sec-Butyl)-6-fluoro-4-(1-methyl-1H-pyrazole-4-carbonyl)-1,3,4,5-tetrahydro-2H-pyrido[3,4-e][1,4]diazepin-2-one] the value was 0.47 µM; for `CC[C@H](C)[C@H]1C(=O)Nc2cncc(C)c2CN1C(N)=O` [Compound 81, (S)-3-((S)-sec-butyl)-6-methyl-2-oxo-1,2,3,5-tetrahydro-4H-pyrido[3,4-e][1,4]diazepine-4-carboxamide], 3.80 µM.
The value for `CC[C@H](C)[C@H]1C(=O)Nc2ccccc2CN1C(=O)c1cc2cnccc2[nH]1` [Compound 83, (S)-3-((S)-sec-butyl)-4-(1H-pyrrolo[3,2-c]pyridine-2-carbonyl)-1,3,4,5-tetrahydro-2H-benzo[e][1,4]diazepin-2-one] was 0.03 µM; that for `CC[C@H](C)[C@H]1C(=O)Nc2ccccc2CN1C(=O)c1ccn(C)n1` [Compound 84, (S)-3-((S)-sec-butyl)-4-(1-methyl-1H-pyrazole-3-carbonyl)-1,3,4,5-tetrahydro-2H-benzo[e][1,4]diazepin-2-one] was 0.09 µM.
Take `CC[C@H](C)[C@H]1C(=O)Nc2ccccc2CN1C(=O)c1ccc(C(N)=O)[nH]1` [Compound 85, 5-((S)-3-((S)-sec-butyl)-2-oxo-2,3,4,5-tetrahydro-1H-benzo[e][1,4]diazepine-4-carbonyl)-1H-pyrrole-2-carboxamide]: the AC1.4 turned out to be 0.01 µM.
In the case of `CC[C@H](C)[C@H]1C(=O)Nc2ccccc2CN1C(=O)[C@H](C)O` [Compound 86, (S)-3-((S)-sec-butyl)-4-((S)-2-hydroxypropanoyl)-1,3,4,5-tetrahydro-2H-benzo[e][1,4]diazepin-2-one], the AC1.4 amounted to 1.81 µM.
